5 molecules from patent US10168342B2, “Lipid probes and uses thereof” (THE SCRIPPS RESEARCH INSTITUTE, priority 2015, dated 2019) can be followed below.

In assay [1] the target is T1, AEA-DA lipid probe targets in Neuro2a cells (Mus musculus, UniProt Q9QY93).
T1 sequence (Q9QY93 1-170): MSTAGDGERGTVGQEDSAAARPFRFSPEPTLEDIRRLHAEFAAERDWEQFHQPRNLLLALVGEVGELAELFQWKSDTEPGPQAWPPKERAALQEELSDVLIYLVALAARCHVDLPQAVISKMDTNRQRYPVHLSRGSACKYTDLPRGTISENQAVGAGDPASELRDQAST

For assay [2], the target named is T2, AEA-DA lipid probe targets in Neuro2a cells (Mus musculus, UniProt Q9DBL9).
T2 sequence (Q9DBL9 1-351): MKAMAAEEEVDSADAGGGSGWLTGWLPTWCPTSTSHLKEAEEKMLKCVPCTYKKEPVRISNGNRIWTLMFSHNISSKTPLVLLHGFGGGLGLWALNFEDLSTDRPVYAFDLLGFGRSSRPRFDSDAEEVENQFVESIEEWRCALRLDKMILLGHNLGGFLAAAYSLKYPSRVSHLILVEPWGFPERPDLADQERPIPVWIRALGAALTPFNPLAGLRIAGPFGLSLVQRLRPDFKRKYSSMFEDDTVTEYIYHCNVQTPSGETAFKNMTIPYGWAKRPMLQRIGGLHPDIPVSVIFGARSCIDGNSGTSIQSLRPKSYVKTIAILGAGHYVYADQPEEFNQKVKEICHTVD

The target of assay [3] is AEA-DA lipid probe targets in Neuro2a cells (Mus musculus, UniProt Q9Z2I0).
AEA-DA lipid probe targets in Neuro2a cells (Mus musculus, UniProt Q9Z2I0), sequence (Q9Z2I0 115-738): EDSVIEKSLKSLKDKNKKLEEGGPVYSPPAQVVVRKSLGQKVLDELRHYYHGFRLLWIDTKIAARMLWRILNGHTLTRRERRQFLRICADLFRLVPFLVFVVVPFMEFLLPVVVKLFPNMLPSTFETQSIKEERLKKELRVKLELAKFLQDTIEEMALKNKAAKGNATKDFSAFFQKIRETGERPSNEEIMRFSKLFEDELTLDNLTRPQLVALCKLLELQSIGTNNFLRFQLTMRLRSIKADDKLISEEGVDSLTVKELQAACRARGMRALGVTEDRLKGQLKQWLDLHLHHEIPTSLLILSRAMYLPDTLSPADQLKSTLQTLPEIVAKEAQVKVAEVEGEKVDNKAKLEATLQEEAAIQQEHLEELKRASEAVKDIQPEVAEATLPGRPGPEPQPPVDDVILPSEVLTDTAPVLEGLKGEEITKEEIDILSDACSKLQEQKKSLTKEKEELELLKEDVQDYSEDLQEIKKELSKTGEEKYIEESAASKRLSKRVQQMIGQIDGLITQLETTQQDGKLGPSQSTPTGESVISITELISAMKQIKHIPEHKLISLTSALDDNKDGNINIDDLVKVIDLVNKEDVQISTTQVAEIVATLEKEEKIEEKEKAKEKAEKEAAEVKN
For assay [4], the target named is AEA-DA lipid probe targets in Neuro2a cells (Mus musculus, UniProt P09055).
AEA-DA lipid probe targets in Neuro2a cells (Mus musculus, UniProt P09055), sequence (P09055 21-798): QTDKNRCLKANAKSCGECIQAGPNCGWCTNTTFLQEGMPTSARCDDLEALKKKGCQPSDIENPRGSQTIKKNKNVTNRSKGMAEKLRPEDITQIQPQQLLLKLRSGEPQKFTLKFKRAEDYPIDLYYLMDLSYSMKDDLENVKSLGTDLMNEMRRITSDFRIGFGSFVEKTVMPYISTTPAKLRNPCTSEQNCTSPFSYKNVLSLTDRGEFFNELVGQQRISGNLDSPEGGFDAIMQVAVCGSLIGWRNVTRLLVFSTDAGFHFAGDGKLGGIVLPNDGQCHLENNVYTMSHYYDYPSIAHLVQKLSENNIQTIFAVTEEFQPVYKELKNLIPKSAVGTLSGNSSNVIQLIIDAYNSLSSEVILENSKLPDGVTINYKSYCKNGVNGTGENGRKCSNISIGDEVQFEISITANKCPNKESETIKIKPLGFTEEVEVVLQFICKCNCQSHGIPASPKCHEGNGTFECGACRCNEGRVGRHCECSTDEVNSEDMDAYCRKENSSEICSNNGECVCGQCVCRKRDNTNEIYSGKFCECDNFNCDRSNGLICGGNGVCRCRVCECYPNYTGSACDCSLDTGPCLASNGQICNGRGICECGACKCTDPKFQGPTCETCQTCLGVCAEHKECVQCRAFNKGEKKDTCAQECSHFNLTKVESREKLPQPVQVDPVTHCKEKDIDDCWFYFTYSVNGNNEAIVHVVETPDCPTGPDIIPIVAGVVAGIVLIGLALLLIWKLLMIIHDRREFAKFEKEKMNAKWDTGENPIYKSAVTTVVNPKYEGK
The target in assay [5] is T3, AEA-DA lipid probe targets in Neuro2a cells (Mus musculus, UniProt Q8BP40).
T3 sequence (Q8BP40 26-418): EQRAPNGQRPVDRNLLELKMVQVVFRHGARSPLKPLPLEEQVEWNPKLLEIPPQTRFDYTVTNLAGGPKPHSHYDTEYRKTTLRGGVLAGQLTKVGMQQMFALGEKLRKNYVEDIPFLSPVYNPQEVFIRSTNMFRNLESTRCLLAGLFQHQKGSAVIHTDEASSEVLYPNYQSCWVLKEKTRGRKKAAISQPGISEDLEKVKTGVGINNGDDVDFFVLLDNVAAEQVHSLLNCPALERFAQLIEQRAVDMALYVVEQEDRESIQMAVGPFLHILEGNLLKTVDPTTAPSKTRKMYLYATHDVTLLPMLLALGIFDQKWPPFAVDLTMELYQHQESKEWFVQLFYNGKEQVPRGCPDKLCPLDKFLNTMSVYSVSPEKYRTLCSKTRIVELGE

For assay [6], the target named is T4, AEA-DA lipid probe targets in Neuro2a cells (Mus musculus, UniProt P51174).
T4 sequence (P51174 31-430): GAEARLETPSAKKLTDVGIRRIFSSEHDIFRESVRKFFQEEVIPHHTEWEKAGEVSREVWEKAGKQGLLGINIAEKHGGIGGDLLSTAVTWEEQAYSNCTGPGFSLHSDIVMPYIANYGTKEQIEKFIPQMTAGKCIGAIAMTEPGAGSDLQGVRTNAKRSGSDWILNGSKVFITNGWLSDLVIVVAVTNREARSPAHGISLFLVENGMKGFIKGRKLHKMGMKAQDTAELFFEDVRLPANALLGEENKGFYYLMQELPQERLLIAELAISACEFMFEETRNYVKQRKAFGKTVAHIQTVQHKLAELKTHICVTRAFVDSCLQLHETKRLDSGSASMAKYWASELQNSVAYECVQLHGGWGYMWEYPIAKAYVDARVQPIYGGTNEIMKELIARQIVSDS

Assay [7] deals with AEA-DA lipid probe targets in Neuro2a cells (Mus musculus, UniProt Q9D880).
AEA-DA lipid probe targets in Neuro2a cells (Mus musculus, UniProt Q9D880), sequence (Q9D880 22-353): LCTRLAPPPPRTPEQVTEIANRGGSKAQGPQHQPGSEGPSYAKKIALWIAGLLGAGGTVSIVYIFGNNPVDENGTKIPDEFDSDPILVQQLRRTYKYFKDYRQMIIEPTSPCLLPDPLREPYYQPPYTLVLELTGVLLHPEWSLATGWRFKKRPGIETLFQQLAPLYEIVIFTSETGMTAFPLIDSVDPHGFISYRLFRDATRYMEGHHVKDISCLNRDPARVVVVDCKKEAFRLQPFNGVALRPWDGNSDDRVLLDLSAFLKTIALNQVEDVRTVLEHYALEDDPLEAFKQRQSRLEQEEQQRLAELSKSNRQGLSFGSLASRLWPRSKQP
Assay [8] deals with T5, AEA-DA lipid probe targets in Neuro2a cells (Mus musculus, UniProt Q6QD59).
T5 sequence (Q6QD59 1-228): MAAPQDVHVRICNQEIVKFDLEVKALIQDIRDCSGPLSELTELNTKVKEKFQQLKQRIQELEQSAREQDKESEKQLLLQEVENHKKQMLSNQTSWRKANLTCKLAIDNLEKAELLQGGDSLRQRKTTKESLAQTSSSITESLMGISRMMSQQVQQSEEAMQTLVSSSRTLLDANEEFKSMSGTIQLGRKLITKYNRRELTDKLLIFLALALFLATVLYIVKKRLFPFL

In assay [9] the target is AEA-DA lipid probe targets in Neuro2a cells (Mus musculus, UniProt P45377).
AEA-DA lipid probe targets in Neuro2a cells (Mus musculus, UniProt P45377), sequence (P45377 whole entry): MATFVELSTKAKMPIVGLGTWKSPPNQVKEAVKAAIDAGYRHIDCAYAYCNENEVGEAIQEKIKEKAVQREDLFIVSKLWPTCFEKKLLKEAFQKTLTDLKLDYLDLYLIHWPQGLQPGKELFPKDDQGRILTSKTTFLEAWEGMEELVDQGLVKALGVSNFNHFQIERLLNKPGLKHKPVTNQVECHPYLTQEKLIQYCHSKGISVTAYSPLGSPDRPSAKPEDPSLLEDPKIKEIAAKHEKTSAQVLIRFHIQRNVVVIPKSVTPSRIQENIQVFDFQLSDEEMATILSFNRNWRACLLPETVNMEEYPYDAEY
For assay [10], the target named is AEA-DA lipid probe targets in Neuro2a cells (Mus musculus, UniProt Q60932). The conditions noted are these: Neuro2a cells, AEA-DA probe.
AEA-DA lipid probe targets in Neuro2a cells (Mus musculus, UniProt Q60932), sequence (Q60932 whole entry): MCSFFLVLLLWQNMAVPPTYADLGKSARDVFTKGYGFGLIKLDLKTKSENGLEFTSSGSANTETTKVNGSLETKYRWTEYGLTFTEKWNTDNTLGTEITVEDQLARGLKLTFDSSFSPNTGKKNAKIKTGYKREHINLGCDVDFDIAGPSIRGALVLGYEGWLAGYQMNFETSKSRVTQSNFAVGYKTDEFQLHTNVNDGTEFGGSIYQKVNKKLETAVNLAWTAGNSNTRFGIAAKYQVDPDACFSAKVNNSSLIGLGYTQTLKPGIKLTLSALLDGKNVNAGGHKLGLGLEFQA
In assay [11] the target is T6, AEA-DA lipid probe targets in Neuro2a cells (Mus musculus, UniProt O35887).
T6 sequence (O35887 20-315): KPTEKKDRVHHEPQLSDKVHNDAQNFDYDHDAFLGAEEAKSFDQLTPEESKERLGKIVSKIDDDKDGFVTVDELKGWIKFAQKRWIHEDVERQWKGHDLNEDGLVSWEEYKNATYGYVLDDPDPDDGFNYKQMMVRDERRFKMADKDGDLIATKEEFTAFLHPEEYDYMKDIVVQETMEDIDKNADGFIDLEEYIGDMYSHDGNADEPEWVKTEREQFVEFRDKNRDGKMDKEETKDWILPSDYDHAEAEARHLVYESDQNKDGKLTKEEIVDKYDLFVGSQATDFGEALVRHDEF

The target of assay [12] is AEA-DA lipid probe targets in Neuro2a cells (Mus musculus, UniProt Q91WD5).
AEA-DA lipid probe targets in Neuro2a cells (Mus musculus, UniProt Q91WD5), sequence (Q91WD5 34-463): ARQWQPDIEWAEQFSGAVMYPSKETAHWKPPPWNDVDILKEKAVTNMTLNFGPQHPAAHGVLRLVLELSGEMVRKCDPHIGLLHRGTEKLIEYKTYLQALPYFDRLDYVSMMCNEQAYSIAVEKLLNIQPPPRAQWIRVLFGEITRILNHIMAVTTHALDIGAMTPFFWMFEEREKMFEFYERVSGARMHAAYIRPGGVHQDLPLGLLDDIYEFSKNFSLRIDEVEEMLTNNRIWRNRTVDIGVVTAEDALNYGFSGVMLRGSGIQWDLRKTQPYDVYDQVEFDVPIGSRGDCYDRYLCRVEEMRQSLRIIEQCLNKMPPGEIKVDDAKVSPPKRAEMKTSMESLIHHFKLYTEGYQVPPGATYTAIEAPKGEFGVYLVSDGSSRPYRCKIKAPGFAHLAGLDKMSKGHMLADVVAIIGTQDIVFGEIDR

SMILES strings stand for the structures. Where two headings read alike, the source gives them in different places.

As to `CCCCC/C=C\C/C=C\C/C=C\C/C=C\CCCC(=O)NCCO` [AEA, anandamide, reference compound], in assay [1] (competitor 200 μM), the “SILAC ratio Dctpp1” value was determined as 1.5. The “SILAC ratio, Abhd5” value in [2] (competitor 200 μM) was found to be 1.3. For the same molecule, in [3] (competitor 200 μM), the “SILAC ratio Letm1” value turned out to be 0.6. Moreover, the “SILAC ratio Itgb1” value in assay [4] (competitor 200 μM) turned out to be 1.5. In assay [5] (competitor 200 μM), the “SILAC ratio, Acp6” value is on record as 2.5. Further, in assay [6] (competitor 200 μM), the “SILAC ratio, Acadl” value is 1.1. In addition, the “SILAC ratio Timm50” value in assay [7] (competitor 200 μM) was found to be 1.2. For the same molecule, the “SILAC ratio, Bnip1” value in [8] (competitor 200 μM) is recorded as 2.1. In assay [9] (competitor 200 μM), the “SILAC ratio, Akr1b8” value came out at 7.7. In addition, the “SILAC ratio, VDAC1 (P21796)” value in [10] (competitor 200 μM) turned out to be 1.1. The “SILAC ratio, Calu” value in [11] (competitor 200 μM) is listed as 1.0. For the same molecule, the “SILAC ratio Ndufs2” value in [12] (competitor 200 μM) is 1.3.
With `O=C(/C=C/c1cccnc1)NCCCCC1CCN(C(=O)c2ccccc2)CC1` [FK-866, reference compound], the “SILAC ratio Dctpp1” value in [1] (competitor 25 μM) came to 1.4. Further, in assay [2] (competitor 25 μM), the “SILAC ratio, Abhd5” value was 1.0. Besides, the “SILAC ratio Letm1” value in assay [3] (competitor 25 μM) was 1.5. Also, the “SILAC ratio, Acp6” value in assay [5] (competitor 25 μM) was found to be 1.2. In addition, in assay [6] (competitor 25 μM), the “SILAC ratio, Acadl” value was 12.4. Also, the “SILAC ratio Timm50” value in [7] (competitor 25 μM) is recorded as 1.1. In assay [9] (competitor 25 μM), the “SILAC ratio, Akr1b8” value worked out at 1.7. The “SILAC ratio, VDAC1 (P21796)” value in [10] (competitor 25 μM) is reported as 1.0. For the same molecule, the “SILAC ratio, Calu” value in [11] (competitor 25 μM) turned out to be 1.0. Further, the “SILAC ratio Ndufs2” value in assay [12] (competitor 25 μM) is 1.7.
As for `CN1CCN(C(=O)c2c(-c3ccccc3)c3cc([N+](=O)[O-])ccc3n2C)CC1` [KML110, (1-Methyl-5-nitro-3-phenyl-1H-indol-2-yl)(4-methylpiperazin-1-yl)methanone], the “SILAC ratio Dctpp1” value in [1] (competitor 25 μM) was found to be 1.6. Further, the “SILAC ratio, Abhd5” value in assay [2] (competitor 25 μM) came out at 2.0. In addition, in assay [3] (competitor 25 μM), the “SILAC ratio Letm1” value was found to be 1.1. For the same molecule, the “SILAC ratio Itgb1” value in [4] (competitor 25 μM) is 1.0. Also, the “SILAC ratio, Acp6” value in [5] (competitor 25 μM) came out at 1.6. Also, the “SILAC ratio, Acadl” value in assay [6] (competitor 25 μM) stood at 1.8. In addition, the “SILAC ratio Timm50” value in [7] (competitor 25 μM) was 1.1. The “SILAC ratio, Bnip1” value in [8] (competitor 25 μM) is given as 1.3. The “SILAC ratio, Akr1b8” value in [9] (competitor 25 μM) was 3.1. The “SILAC ratio, Calu” value in assay [11] (competitor 25 μM) is on record as 1.1. Further, the “SILAC ratio Ndufs2” value in assay [12] (competitor 25 μM) worked out at 1.3.
For the molecule `CN1CCN(C(=O)c2[nH]c3ccc([N+](=O)[O-])cc3c2-c2ccccc2)CC1` [MJN228, (4-Methylpiperazin-1-yl)(5-nitro-3-phenyl-1H-indol-2-yl)methanone], the “SILAC ratio Dctpp1” value in assay [1] (competitor 25 μM) was 1.2; in assay [1] (competitor 50 μM) it was 1.0; in assay [1] (competitor 100 μM), 1.0. For the same molecule, the “SILAC ratio, Abhd5” value in assay [2] (competitor 10 μM) came to 1.6; in [2] (competitor 25 μM) it was 2.2; in assay [2] (competitor 50 μM) it was 4.0; in [2] (competitor 100 μM) it was 14.3. In addition, the “SILAC ratio Letm1” value was 1.3 in assay [3] (competitor 10 μM), 1.5 in assay [3] (competitor 25 μM), 1.2 in [3] (competitor 50 μM) and 1.1 in assay [3] (competitor 100 μM). Besides, the “SILAC ratio Itgb1” value came to 1.2 in [4] (competitor 10 μM), 1.3 in assay [4] (competitor 25 μM), 1.1 in assay [4] (competitor 50 μM) and 1.1 in [4] (competitor 100 μM). Besides, the “SILAC ratio, Acp6” value in assay [5] (competitor 10 μM) is reported as 1.5; in assay [5] (competitor 25 μM), 1.5; in assay [5] (competitor 50 μM), 1.8; in assay [5] (competitor 100 μM), 2.3. Besides, the “SILAC ratio, Acadl” value is recorded as 1.4 in assay [6] (competitor 10 μM), 1.8 in assay [6] (competitor 25 μM), 2.0 in assay [6] (competitor 50 μM) and 2.4 in [6] (competitor 100 μM). Moreover, the “SILAC ratio Timm50” value in assay [7] (competitor 10 μM) amounted to 1.2; in [7] (competitor 25 μM), 1.3; in [7] (competitor 50 μM), 1.1; in assay [7] (competitor 100 μM), 1.2. Moreover, the “SILAC ratio, Bnip1” value was determined as 1.2 in assay [8] (competitor 10 μM) and 1.1 in [8] (competitor 25 μM). Moreover, the “SILAC ratio, Akr1b8” value in assay [9] (competitor 25 μM) was 1.9; in assay [9] (competitor 50 μM) it was 2.1; in assay [9] (competitor 100 μM), 2.7. In assay [10] (competitor 25 μM), the “SILAC ratio, VDAC1 (P21796)” value amounted to 1.1. The “SILAC ratio, Calu” value in assay [11] (competitor 10 μM) was 1.1; in assay [11] (competitor 25 μM) it was 1.5; in assay [11] (competitor 100 μM), 1.8. For the same molecule, the “SILAC ratio Ndufs2” value in assay [12] (competitor 10 μM) is on record as 1.3; in [12] (competitor 25 μM) it was 1.3; in assay [12] (competitor 100 μM), 1.1.
`C=CCN(C)CCCCCCOc1ccc(C(=O)c2ccc(Br)cc2)c(F)c1` [Ro 48-8071, reference compound]: the “SILAC ratio Dctpp1” value in assay [1] (competitor 25 μM) was found to be 0.8. Moreover, the “SILAC ratio, Abhd5” value in assay [2] (competitor 25 μM) came to 1.4. Moreover, the “SILAC ratio Letm1” value in assay [3] (competitor 25 μM) is 1.3. Moreover, the “SILAC ratio, Acp6” value in [5] (competitor 25 μM) is listed as 0.9. Moreover, the “SILAC ratio, Acadl” value in assay [6] (competitor 25 μM) is on record as 1.3. Besides, the “SILAC ratio Timm50” value in assay [7] (competitor 25 μM) worked out at 0.9. Further, the “SILAC ratio, Bnip1” value in assay [8] (competitor 25 μM) is reported as 1.0. In addition, the “SILAC ratio, Akr1b8” value in assay [9] (competitor 25 μM) is 1.4. In addition, the “SILAC ratio, VDAC1 (P21796)” value in [10] (competitor 25 μM) stood at 1.0. Also, the “SILAC ratio, Calu” value in assay [11] (competitor 25 μM) turned out to be 0.9. For the same molecule, in [12] (competitor 25 μM), the “SILAC ratio Ndufs2” value is given as 1.2.
